Our source for the IC50 values is patent US11479551B2, “MTA-cooperative PRMT5 inhibitors” (Mirati Therapeutics, Inc., priority 2019, dated 2022).

Each structure is given as a SMILES string.

For experiment [1], the target named is T1, PRMT5/MEP50 complex (Homo sapiens (Human), UniProt O14744). Briefly: PRMT5:MEP50 HotSpot Assay (full-length histone H2A substrate, plus and minus MTA). The format is biochemical. The protocol: (§1) The PRMT5 inhibitory activity of compounds of the present invention was determined using either a PRMT5:MEP50 FlashPlate Assay (Reaction Biology Corporation) or a PRMT5:MEP50 HotSpot Assay (Reaction Biology Corporation).
T1 sequence (O14744 2-637): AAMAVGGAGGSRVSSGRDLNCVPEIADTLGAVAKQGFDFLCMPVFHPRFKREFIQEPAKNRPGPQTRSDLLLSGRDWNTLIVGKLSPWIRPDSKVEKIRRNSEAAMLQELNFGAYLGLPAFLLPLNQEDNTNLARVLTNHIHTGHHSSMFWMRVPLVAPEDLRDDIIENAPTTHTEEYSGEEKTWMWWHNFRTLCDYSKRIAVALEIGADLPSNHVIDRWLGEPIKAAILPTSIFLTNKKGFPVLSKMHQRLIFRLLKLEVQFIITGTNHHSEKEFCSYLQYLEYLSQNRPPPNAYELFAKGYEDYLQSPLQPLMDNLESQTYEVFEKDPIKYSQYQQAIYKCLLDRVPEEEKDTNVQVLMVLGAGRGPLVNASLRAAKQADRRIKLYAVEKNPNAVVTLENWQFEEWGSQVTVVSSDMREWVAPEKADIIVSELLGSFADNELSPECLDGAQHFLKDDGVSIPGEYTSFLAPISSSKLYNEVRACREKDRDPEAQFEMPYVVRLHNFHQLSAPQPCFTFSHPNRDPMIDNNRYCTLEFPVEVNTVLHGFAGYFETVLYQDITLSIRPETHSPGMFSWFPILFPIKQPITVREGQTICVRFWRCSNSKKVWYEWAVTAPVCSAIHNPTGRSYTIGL
T1 sequence (Q9BQA1 2-342 partner): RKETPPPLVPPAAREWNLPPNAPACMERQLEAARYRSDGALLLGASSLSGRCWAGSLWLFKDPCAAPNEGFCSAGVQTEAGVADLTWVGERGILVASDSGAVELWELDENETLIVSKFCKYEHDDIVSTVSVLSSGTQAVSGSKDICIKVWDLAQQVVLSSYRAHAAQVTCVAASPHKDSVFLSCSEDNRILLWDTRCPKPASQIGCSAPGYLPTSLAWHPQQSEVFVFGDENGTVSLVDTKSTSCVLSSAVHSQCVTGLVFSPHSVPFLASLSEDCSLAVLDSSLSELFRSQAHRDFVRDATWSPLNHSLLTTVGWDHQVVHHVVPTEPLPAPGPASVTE
The assay uses recombinant full-length histone H2A as the PRMT5 substrate. […] The reaction was stopped and transferred to filter paper for detection. The amount of tritiated H2A in each sample was determined using a scintillation counter.

Experiment [2] concerns the target T1, PRMT5/MEP50 complex. Briefly: PRMT5:MEP50 FlashPlate Assay (histone H4 peptide substrate, plus and minus MTA). The format is biochemical. The protocol:
as §1
1. PRMT5:MEP50 FlashPlate Assay

Setting [3] is: IC50 + 2 μM MTA, in the presence of 2 μM MTA.
[4] abbreviates: in the absence of MTA, read-out: IC50.
The mark [5] stands for this setting: IC50 + 2 μM MTA (nM), in the presence of 2 μM MTA.

By IC50 is commonly meant the concentration that inhibits the measured activity by half. On to `CN(c1cncc(-c2ccc3c(=O)[nH]nc(CN)c3c2)c1)c1cccc2cccnc12` [Example 4-122, 4-(aminomethyl)-6-(5-(methyl(quinolin-8-yl)amino)pyridin-3-yl)phthalazin-1(2H)-one], for which, on PRMT5/MEP50 complex [1] (setting [3]), the IC50 was 3820 nM.

On to `Cn1ncc(-c2ccc3c(=O)[nH]nc(CN)c3c2)c1-c1cccc(Cl)c1C#N` [Example 4-119, 2-(4-(4-(aminomethyl)-1-oxo-1,2-dihydrophthalazin-6-yl)-1-methyl-1H-pyrazol-5-yl)-6-chlorobenzonitrile], for which the IC50 was found to be 441 nM on PRMT5/MEP50 complex [1] (setting [3]) and 5260 nM on PRMT5/MEP50 complex [1] (setting [4]).

As for `CCc1ccc(-c2c(-c3ccc4c(=O)[nH]nc(CN)c4c3)cnn2C)c(C#N)c1` [Example 4-124, 2-(4-(4-(aminomethyl)-1-oxo-1,2-dihydrophthalazin-6-yl)-1-methyl-1H-pyrazol-5-yl)-5-ethylbenzonitrile], the IC50 on PRMT5/MEP50 complex [1] (setting [3]) worked out at 826 nM.

Turning to `NCc1n[nH]c(=O)c2ccc(-c3cncc(C4CCCOC4)c3)cc12` (centres unmarked) [Example 4-195, 4-(aminomethyl)-6-(5-(tetrahydro-2H-pyran-3-yl)pyridin-3-yl)phthalazin-1(2H)-one], the 50% inhibitory concentration (IC50) on PRMT5/MEP50 complex [1] (setting [3]) is above 10000 nM.

With `NCc1n[nH]c(=O)c2ccc(-c3cnn4ccc(Oc5ccccc5)cc34)cc12` [Example 4-114, 4-(aminomethyl)-6-(5-phenoxypyrazolo[1,5-a]pyridin-3-yl)phthalazin-1(2H)-one], the IC50 on PRMT5/MEP50 complex [1] (setting [3]) was 486 nM.

With `N#Cc1ccc(C#N)c(-c2cncc(-c3ccc4c(=O)[nH]nc(CN)c4c3)c2)c1` [Example 8-9, 2-(5-(4-(aminomethyl)-1-oxo-1,2-dihydrophthalazin-6-yl)pyridin-3-yl)terephthalonitrile], the concentration for half-maximal inhibition (IC50) on PRMT5/MEP50 complex [1] (setting [3]) is above 10000 nM.

Regarding `Cn1ncc(-c2ccc3c(=O)[nH]nc(CN)c3c2)c1-c1cccc(OC2CCC2)c1C#N` [Example 4-177, 2-(4-(4-(aminomethyl)-1-oxo-1,2-dihydrophthalazin-6-yl)-1-methyl-1H-pyrazol-5-yl)-6-cyclobutoxybenzonitrile], at PRMT5/MEP50 complex [1] (setting [3]), the IC50 worked out at 5970 nM.

For the compound `COc1ccc(-c2c(-c3ccc4c(=O)[nH]nc(CN)c4c3)cnn2C)c(C#N)c1Cl` [Example 4-170, 6-(4-(4-(aminomethyl)-1-oxo-1,2-dihydrophthalazin-6-yl)-1-methyl-1H-pyrazol-5-yl)-2-chloro-3-methoxybenzonitrile], the IC50 on PRMT5/MEP50 complex [1] (setting [3]) turned out to be 728 nM.

Take `COc1ccc(Oc2cncc(-c3ccc4c(=O)[nH]nc(CN)c4c3)c2)c(OC)c1` [Example 4-162, 4-(aminomethyl)-6-(5-(2,4-dimethoxyphenoxy)pyridin-3-yl)phthalazin-1(2H)-one]: the half-inhibitory concentration (IC50) on PRMT5/MEP50 complex [1] (setting [3]) worked out at 842 nM.

As for `Cn1ncc(-c2ccc3c(=O)[nH]nc(CN)c3c2)c1OCc1ccccc1` [Example 4-115, 4-(aminomethyl)-6-(5-(benzyloxy)-1-methyl-1H-pyrazol-4-yl)phthalazin-1(2H)-one], the IC50 at PRMT5/MEP50 complex [1] (setting [3]) is 377 nM.

As to `Cn1ncc(-c2ccc3c(=O)[nH]nc(CN)c3c2)c1-c1ccc(OC2CCC2)cc1` [Example 4-138, 4-(aminomethyl)-6-(5-(4-cyclobutoxyphenyl)-1-methyl-1H-pyrazol-4-yl)phthalazin-1(2H)-one], the IC50 at PRMT5/MEP50 complex [1] (setting [3]) was 354 nM.

In the case of `NCc1n[nH]c(=O)c2ccc(-c3cncc(Oc4cccc5cccnc45)c3)cc12` [Example 4-121, 4-(aminomethyl)-6-(5-(quinolin-8-yloxy)pyridin-3-yl)phthalazin-1(2H)-one], the half-maximal inhibitory concentration (IC50) at PRMT5/MEP50 complex [1] (setting [3]) was found to be 177 nM.

`Cn1ncc(-c2ccc3c(=O)[nH]nc(CN)c3c2)c1-c1ccccc1C(F)F` [Example 4-153, 4-(aminomethyl)-6-(5-(2-(difluoromethyl)phenyl)-1-methyl-1H-pyrazol-4-yl)phthalazin-1(2H)-one]: the half-inhibitory concentration (IC50) at PRMT5/MEP50 complex [1] (setting [3]) worked out at 1650 nM.

In the case of `CC(C)Oc1ccn2ncc(-c3ccc4c(=O)[nH]nc(CN)c4c3)c2c1` [Example 4-113, 4-(aminomethyl)-6-(5-isopropoxypyrazolo[1,5-a]pyridin-3-yl)phthalazin-1(2H)-one], at PRMT5/MEP50 complex [1] (setting [3]), the IC50 was determined as 561 nM.

For the compound `CCc1ccc(C#N)c(-c2c(-c3ccc4c(=O)[nH]nc(CN)c4c3)cnn2C)c1` [Example 4-125, 2-(4-(4-(aminomethyl)-1-oxo-1,2-dihydrophthalazin-6-yl)-1-methyl-1H-pyrazol-5-yl)-4-ethylbenzonitrile], the IC50 on PRMT5/MEP50 complex [1] (setting [3]) worked out at 1000 nM.

Turning to `CN(C)c1c(-c2ccc3c(=O)[nH]nc(CN)c3c2)cnn1C` [Example 4-171, 4-(aminomethyl)-6-(5-(dimethylamino)-1-methyl-1H-pyrazol-4-yl)phthalazin-1(2H)-one], on PRMT5/MEP50 complex [1] (setting [3]), the IC50 was 4440 nM.

Take `CCc1ccc(-c2ccc3c(=O)[nH]nc(CN)c3c2)cn1` [Example 3-3, 4-(aminomethyl)-6-(6-ethylpyridin-3-yl)phthalazin-1(2H)-one]: the values for the half-maximal inhibitory concentration (IC50) at PRMT5/MEP50 complex [2] (setting [5]) and on PRMT5/MEP50 complex [2] (setting [4]) were 25000 nM and 10000 nM, respectively.

For the compound `NCc1n[nH]c(=O)c2ccc(-c3cncc(C(F)(F)F)c3)cc12` [Example 3-43, 4-(aminomethyl)-6-(5-(trifluoromethyl)pyridin-3-yl)phthalazin-1(2H)-one], the concentration for half-maximal inhibition (IC50) at PRMT5/MEP50 complex [2] (setting [5]) came out at 340 nM; at PRMT5/MEP50 complex [2] (setting [4]) it was 6500 nM.

Regarding `COCc1cncc(-c2ccc3c(=O)[nH]nc(CN)c3c2)c1` [Example 3-46, 4-(aminomethyl)-6-(5-(methoxymethyl)pyridin-3-yl)phthalazin-1(2H)-one], the half-inhibitory concentration (IC50) was 570 nM at PRMT5/MEP50 complex [2] (setting [5]) and 7880 nM at PRMT5/MEP50 complex [2] (setting [4]).

Turning to `NCc1n[nH]c(=O)c2ccc(-c3cccnn3)cc12` [Example 4-1, 4-(aminomethyl)-6-(pyridazin-3-yl)phthalazin-1(2H)-one], the results for the IC50 on PRMT5/MEP50 complex [2] (setting [5]) and on PRMT5/MEP50 complex [2] (setting [4]) were 45000 nM and above 100000 nM, respectively.

With `Cc1c(-c2ccc3c(=O)[nH]nc(CN)c3c2)cnn1C` [Example 3-9, 4-(aminomethyl)-6-(1,5-dimethyl-1H-pyrazol-4-yl)phthalazin-1(2H)-one], the values for the IC50 on PRMT5/MEP50 complex [2] (setting [5]) and at PRMT5/MEP50 complex [2] (setting [4]) were 33 nM and 1230 nM, respectively.

As to `NCc1n[nH]c(=O)c2ccc(N3CCOCC3)cc12` [Example 6-5, 4-(aminomethyl)-6-morpholino-2H-phthalazin-1-one], the IC50 on PRMT5/MEP50 complex [2] (setting [5]) and on PRMT5/MEP50 complex [2] (setting [4]) was above 100000 nM each time.

`CC(C)CCn1cc(-c2ccc3c(=O)[nH]nc(CN)c3c2)cn1` [Example 3-26, 4-(aminomethyl)-6-(1-isopentyl-1H-pyrazol-4-yl)phthalazin-1(2H)-one]: the results for the half-inhibitory concentration (IC50) on PRMT5/MEP50 complex [2] (setting [5]) and on PRMT5/MEP50 complex [2] (setting [4]) were 1600 nM and 20600 nM, respectively.

`Cn1ncc(-c2ccc3c(=O)[nH]nc(CN)c3c2)c1Cl` [Example 4-49, 4-(aminomethyl)-6-(5-chloro-1-methyl-pyrazol-4-yl)-2H-phthalazin-1-one]: the IC50 amounted to 300 nM at PRMT5/MEP50 complex [2] (setting [5]) and 5930 nM at PRMT5/MEP50 complex [2] (setting [4]).

Take `Cc1ncc(-c2ccc3c(=O)[nH]nc(CN)c3c2)cn1` [Example 3-11, 4-(aminomethyl)-6-(2-methylpyrimidin-5-yl)phthalazin-1(2H)-one]: the IC50 at PRMT5/MEP50 complex [2] (setting [5]) turned out to be 5000 nM; on PRMT5/MEP50 complex [2] (setting [4]), 131000 nM.

For the compound `NCc1n[nH]c(=O)c2ccc(-c3cnc4cccnn34)cc12` [Example 4-26, 4-(aminomethyl)-6-(imidazo[1,2-b]pyridazin-3-yl)phthalazin-1(2H)-one], the IC50 at PRMT5/MEP50 complex [2] (setting [5]) was found to be 130 nM; on PRMT5/MEP50 complex [2] (setting [4]), 1730 nM.

As to `COc1ccc(-c2cncc(-c3ccc4c(=O)[nH]nc(CN)c4c3)c2)c(C#N)c1` [Example 8-3, 2-(5-(4-(aminomethyl)-1-oxo-1,2-dihydrophthalazin-6-yl)pyridin-3-yl)-5-methoxybenzonitrile], the half-maximal inhibitory concentration (IC50) was determined as 2.3 nM at PRMT5/MEP50 complex [2] (setting [5]) and 237 nM on PRMT5/MEP50 complex [2] (setting [4]).

For `NCc1n[nH]c(=O)c2ccc(-c3cncc(Oc4ncccn4)c3)cc12` [Example 4-64, 4-(aminomethyl)-6-(5-(pyrimidin-2-yloxy)pyridin-3-yl)phthalazin-1(2H)-one], the half-maximal inhibitory concentration (IC50) at PRMT5/MEP50 complex [2] (setting [5]) was 230 nM; at PRMT5/MEP50 complex [2] (setting [4]) it was 4110 nM.

Take `NCc1n[nH]c(=O)c2ccc(-c3cnc4cnccn34)cc12` [Example 4-25, 4-(aminomethyl)-6-(imidazo[1,2-a]pyrazin-3-yl)phthalazin-1(2H)-one]: the IC50 was 1700 nM at PRMT5/MEP50 complex [2] (setting [5]) and above 100000 nM at PRMT5/MEP50 complex [2] (setting [4]).

As to `NCc1n[nH]c(=O)c2ccc(-c3cnn4ccccc34)cc12` [Example 3-16, 4-(aminomethyl)-6-(pyrazolo[1,5-a]pyridin-3-yl)phthalazin-1(2H)-one], the IC50 on PRMT5/MEP50 complex [2] (setting [5]) came out at 13 nM; on PRMT5/MEP50 complex [2] (setting [4]), 186 nM.

As to `CCCNc1ccc2c(CN)n[nH]c(=O)c2c1` [Example 6-2], the half-inhibitory concentration (IC50) at PRMT5/MEP50 complex [2] (setting [5]) and on PRMT5/MEP50 complex [2] (setting [4]) was above 100000 nM in each case.

In the case of `NCc1n[nH]c(=O)c2cc(NCc3ccccc3)ccc12` [Example 6-4, 4-(aminomethyl)-7-(benzylamino)-2H-phthalazin-1-one], the IC50 on PRMT5/MEP50 complex [2] (setting [5]) amounted to 19000 nM.

As for `Cc1nn(C)cc1-c1ccc2c(=O)[nH]nc(CN)c2c1` [Example 3-22, 4-(aminomethyl)-6-(1,3-dimethyl-1H-pyrazol-4-yl)phthalazin-1(2H)-one], the IC50 on PRMT5/MEP50 complex [2] (setting [5]) is 35000 nM; at PRMT5/MEP50 complex [2] (setting [4]), above 100000 nM.

As to `CCOc1cncc(-c2ccc3c(=O)[nH]nc(CN)c3c2)c1` [Example 3-49, 4-(aminomethyl)-6-(5-ethoxypyridin-3-yl)phthalazin-1(2H)-one], the concentration for half-maximal inhibition (IC50) on PRMT5/MEP50 complex [2] (setting [5]) stood at 110 nM; on PRMT5/MEP50 complex [2] (setting [4]) it was 3850 nM.

Turning to `Cc1nc2ccc(F)cn2c1-c1ccc2c(=O)[nH]nc(CN)c2c1` [Example 4-33, 4-(aminomethyl)-6-(6-fluoro-2-methylimidazo[1,2-a]pyridin-3-yl)phthalazin-1(2H)-one], the concentration for half-maximal inhibition (IC50) on PRMT5/MEP50 complex [2] (setting [5]) and on PRMT5/MEP50 complex [2] (setting [4]) was above 100000 nM in each case.

As to `COc1cccc(Oc2cncc(-c3ccc4c(=O)[nH]nc(CN)c4c3)c2)c1` [Example 4-68, 4-(aminomethyl)-6-(5-(3-methoxyphenoxy)pyridin-3-yl)phthalazin-1(2H)-one], the IC50 came to 10 nM at PRMT5/MEP50 complex [2] (setting [5]) and 243 nM on PRMT5/MEP50 complex [2] (setting [4]).
